Measurements reported in US20100298300A1, “TRIAZOLOPYRAZINE COMPOUNDS USEFUL FOR THE TREATMENT OF DEGENERATIVE & INFLAMMATORY DISEASES” (priority 2006, published 2010).

Experiments:
[1] = tested on: MMP1 expression by activated primary synovial fibroblasts; assay: 'MMP assay': MMP1 expression by complex trigger activated synovial fibroblasts (MMP1 ELISA); type: cell-based; conditions: Homo sapiens, Fibroblast; Table 3; RASFs, complex trigger, 48 hrs, MMP1 ELISA
[2] = tested on: TNFα release by human PBMCs; assay: Cytokine release by LPS stimulated human PBMCs (TNFα ELISA); type: cell-based; conditions: PBMC, 24 h, Table 5, LPS 1 μg/mL
Procedure: For the assay PBMCs are seeded at 2.5E6 cells/mL in 160 μL in 96-well plates (Nunc). Serial dilution of the test compounds are made first in DMSO (Sigma) and then diluted 50-fold in M199 medium (Gibco) containing 1% heat-inactivated FBS. Compounds are further 1/10 diluted in the assay plates to obtain final DMSO concentration of 0.2%. Cells are preincubated with the compounds for 1 hr at 37° C., 5% CO2. Then, cells are stimulated with LPS (Escherichia coli serotype 026:B6, Cat. No. L2654, Sigma) that is added in a volume of 20 μL to a final concentration of 1 μg/mL and cells are further cultured for 24 hr. The plates are centrifuged and the supernatant is collected and stored at −80° C. until analysis of appropriate dilutions in ELISAs.
After 4 hr incubation at RT, blocking buffer is removed and plates are washed once with PBST (1×PBS with 0.05% Tween-20 (Sigma)). Then, 40 μL of sample is transferred to the ELISA plates and plates are incubated at 4° C. […] After 2 h of incubation at RT, plates are washed as described above and 35 μL/well of a 1/2000 dilution of streptavidin-HRP conjugate (Cat. No. SNN2004, Biosource) in buffer D is added. After 45 min, plates are washed as described above and incubated for 5 min with 50 μL/well BM Chemiluminescence ELISA Substrate POD (Roche). Readout is performed on the Luminoscan Ascent Luminometer (Labsystems) with an integration time of 100 msec delivering raw data (RLU: relative luminescence units). The following controls are included in the experiments, a maximal signal control, in which the cells are activated by LPS but only the 0.2% DMSO vehicle (and thus no compound) is added. […] A minimal signal control is also included in these experiments. Here, cells are not triggered. […] Where compounds are tested at 8 concentrations (1/3 serial dilution), EC50-values can be calculated by curve fitting of the means of the PIN data achieved for a compound at each test concentration.

[3] = biological target: T1, MAPKAPK5 (Homo sapiens, UniProt Q8IW41); assay: MAPKAP-K5 assay (FlashPlate kinase assay)
T1 sequence (Q8IW41 1-471 isoform Q8IW41-2): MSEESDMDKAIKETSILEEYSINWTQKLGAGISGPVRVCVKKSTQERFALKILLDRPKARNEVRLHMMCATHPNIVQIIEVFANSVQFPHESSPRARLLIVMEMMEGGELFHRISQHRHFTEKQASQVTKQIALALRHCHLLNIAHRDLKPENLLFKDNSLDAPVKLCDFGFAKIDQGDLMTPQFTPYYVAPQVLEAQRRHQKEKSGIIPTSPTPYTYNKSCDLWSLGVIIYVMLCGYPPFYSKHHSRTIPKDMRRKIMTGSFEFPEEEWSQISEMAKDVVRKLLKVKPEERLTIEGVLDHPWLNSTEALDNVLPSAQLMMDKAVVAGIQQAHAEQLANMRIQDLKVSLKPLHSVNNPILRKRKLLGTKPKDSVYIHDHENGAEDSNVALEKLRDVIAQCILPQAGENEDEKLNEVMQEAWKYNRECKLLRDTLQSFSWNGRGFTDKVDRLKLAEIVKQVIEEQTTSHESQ

Row | SMILES | EC50 [1] [µM] | EC50 [2] [µM] | IC50 [3] [µM]
1 | CCc1[nH]ncc1-c1cnc(Nc2ccc(N3CCOCC3)cc2)c2ncnn12 [Compound 52, 5-(5-Ethyl-1H-pyrazol-4-yl)-N-(4-morpholinophenyl)-[1,2,4]triazolo[1,5-a]pyrazin-8-amine] | > 1 | > 1 | > 1
2 | O=C1NS(=O)(=O)c2cc(-c3cnc(Nc4ccc(N5CCOCC5)cc4)c4ncnn34)ccc21 [Compound 53, 6-[8-(4-Morpholin-4-yl-phenylamino)-[1,2,4]triazolo[1,5-a]pyrazin-5-yl]-1,1-dioxo-1,2-dihydro-1λ^6-benzo[d]isothiazol-3-one] | 0.501 to 1 | > 1 | > 1
3 | NC(=O)c1cc(-c2cnc(Nc3ccc(N4CCN(CC5CC5)CC4)nc3)c3ncnn23)cs1 [Compound 54, 4-{8-[6-(4-[Cyclopropylmethyl]piperazin-1-yl)-pyridin-3-ylamino]-[1,2,4]triazolo[1,5-a]pyrazin-5-yl}thiophene-2-carboxylic acid amide] | 0.101 to 0.5 | 0.501 to 1 | 0.101 to 0.5
4 | NC(=O)c1cc(-c2cnc(Nc3ccc(N4CCN(CC(F)(F)F)CC4)nc3)c3ncnn23)cs1 [Compound 56, 4-(8-{6-[4-(2,2,2-Trifluoroethyl)piperazin-1-yl]-pyridin-3-ylamino}-[1,2,4]triazolo[1,5-a]pyrazin-5-yl)thiophene-2-carboxylic acid amide] | 0.501 to 1 | > 1 | 0.501 to 1
5 | NC(=O)c1cc(-c2cnc(Nc3ccc(N4CCN(CC(F)(F)F)CC4)cc3)c3ncnn23)cs1 [Compound 57, 4-(8-{4-[4-(2,2,2-Trifluoroethyl)piperazin-1-yl]-phenylamino}-[1,2,4]triazolo[1,5-a]pyrazin-5-yl)thiophene-2-carboxylic acid amide] | 0.101 to 0.5 | > 1 | 0.101 to 0.5
6 | NC(=O)c1cc(-c2cnc(Nc3ccc(N4CCN(CC5CC5)CC4)cc3)c3ncnn23)cs1 [Compound 58, 4-{8-[4-(4-(Cyclopropylmethyl)piperazin-1-yl)-phenylamino]-[1,2,4]triazolo[1,5-a]pyrazin-5-yl}thiophene-2-carboxylic acid amide] | 0.101 to 0.5 | > 1 | 0.101 to 0.5
7 | c1nc2c(Nc3ccc(N4CCN(C5CC5)CC4)cc3)ncc(-c3cn[nH]c3)n2n1 [Compound 59, [4-(4-Cyclopropylpiperazin-1-yl)phenyl]-[5-(1H-pyrazol-4-yl)-[1,2,4]triazolo[1,5-a]pyrazin-8-yl]amine] | > 1 | > 1 | > 1
8 | c1nc2c(Nc3ccc(N4CCN(C5CC5)CC4)nc3)ncc(-c3cn[nH]c3)n2n1 [Compound 60, [6-(4-Cyclopropylpiperazin-1-yl)pyridin-3-yl]-[5-(1H-pyrazol-4-yl)-[1,2,4]triazolo[1,5-a]pyrazin-8-yl]amine] | > 1 | > 1 | > 1
9 | NC(=O)c1nc(-c2cnc(Nc3ccc(N4CCOCC4)cc3)c3ncnn23)cs1 [Compound 61, 4-[8-(4-Morpholin-4-ylphenylamino)-[1,2,4]triazolo[1,5-a]pyrazin-5-yl]thiazole-2-carboxylic acid amide] | 0.501 to 1 | > 1 | > 1
10 | CC(C)N1CCN(c2ccc(Nc3ncc(-c4csc(C(N)=O)n4)n4ncnc34)cc2)CC1 [Compound 62, 4-{8-[4-(4-Isopropylpiperazin-1-yl)phenylamino]-[1,2,4]triazolo[1,5-a]pyrazin-5-yl}thiazole-2-carboxylic acid amide] | > 1 | 0.501 to 1 | 0.501 to 1
11 | NC(=O)c1cc(-c2cnc(Nc3ccc(C4CCN(CC(F)(F)F)CC4)cc3)c3ncnn23)cs1 [Compound 63, 4-(8-{4-[1-(2,2,2-Trifluoroethyl)piperidin-4-yl]phenylamino}-[1,2,4]triazolo[1,5-a]pyrazin-5-yl)thiophene-2-carboxylic acid amide] | 0.101 to 0.5 | > 1 | > 1
12 | FC(F)(F)CN1CCC(c2ccc(Nc3ncc(-c4cn[nH]c4)n4ncnc34)cc2)CC1 [Compound 64] | > 1 | > 1 | > 1
13 | O=C1NCc2cc(-c3cnc(Nc4ccc(OCCN5CCOCC5)cc4)c4ncnn34)ccc21 [Compound 65, 5-(8-(4-(2-Morpholinoethoxy)phenylamino)-[1,2,4]triazolo[1,5-a]pyrazin-5-yl)isoindolin-1-one] | 0.101 to 0.5 | > 1 | 0.101 to 0.5
14 | c1nc2c(Nc3ccc(N4CCOCC4)cc3)ncc(-c3ccc4ncsc4c3)n2n1 [Compound 66] | 0.501 to 1 | > 1 | > 1
15 | Fc1cc(N2CCOCC2)ccc1Nc1ncc(-c2cn[nH]c2)n2ncnc12 [Compound 67, N-(2-Fluoro-4-morpholinophenyl)-5-(1H-pyrazol-4-yl)-[1,2,4]triazolo[1,5-a]pyrazin-8-amine] | > 1 | > 1 | > 1
16 | Clc1cc(N2CCOCC2)ccc1Nc1ncc(-c2cn[nH]c2)n2ncnc12 [Compound 68] | > 1 | > 1 | > 1
17 | CC(=O)c1ccc(-c2cnc(Nc3ccc(N4CCOCC4)cc3)c3ncnn23)s1 [Compound 69] | > 1 | > 1 | > 1
18 | OCc1n[nH]cc1-c1cnc(Nc2ccc(N3CCOCC3)cc2)c2ncnn12 [Compound 70, (4-(8-(4-Morpholinophenylamino)-[1,2,4]triazolo[1,5-a]pyrazin-5-yl)-1H-pyrazol-5-yl)methanol] | > 1 | > 1 | > 1
19 | O=C1CCC(c2ccc(-c3cnc(Nc4ccc(N5CCOCC5)cc4)c4ncnn34)cc2)=NN1 [Compound 71] | > 1 | > 1 | > 1
20 | c1nc2c(Nc3ccc(N4CCOCC4)cc3)ncc(-c3ccc4nonc4c3)n2n1 [Compound 72] | > 1 | > 1 | > 1
21 | CNC(=O)c1nc(-c2cnc(Nc3ccc(N4CCOCC4)cc3)c3ncnn23)cs1 [Compound 73, 4-[8-(4-Morpholin-4-yl-phenylamino)-[1,2,4]triazolo[1,5-a]pyrazin-5-yl]-thiazole-2-carboxylic acid methylamide] | > 1 | > 1 | > 1
22 | CNC(=O)c1nc(-c2cnc(Nc3ccc(N4CCN(C(C)C)CC4)cc3)c3ncnn23)cs1 [Compound 74] | > 1 | > 1 | > 1
23 | O=C1NCc2cc(-c3cnc(Nc4ccc(N5CCOCC5)cc4F)c4ncnn34)ccc21 [Compound 75] | > 1 | > 1 | > 1
24 | O=C1NCc2cc(-c3cnc(Nc4ccc(N5CCOCC5)cc4Cl)c4ncnn34)ccc21 [Compound 76] | 0.501 to 1 | > 1 | > 1
25 | CC(C)N1CCN(c2ccc(Nc3ncc(-c4ccc5c(c4)CNC5=O)n4ncnc34)c(Cl)c2)CC1 [Compound 77] | > 1 | > 1 | 0.101 to 0.5
26 | Nc1ncc(-c2cnc(Nc3ccc(N4CCOCC4)cc3)c3ncnn23)cn1 [Compound 78] | > 1 | 0.501 to 1 | > 1
27 | CC(C)N1CCN(c2ccc(Nc3ncc(-c4ccc5c(c4)CNC5=O)n4ncnc34)cn2)CC1 [Compound 79, 5-(8-(6-(4-Isopropylpiperazin-1-yl)pyridin-3-ylamino)-[1,2,4]triazolo[1,5-a]pyrazin-5-yl)isoindolin-1-one] | 0.501 to 1 | > 1 | 0.001 to 0.1
28 | CC(C)N1CCN(c2ccc(Nc3ncc(-c4csc5c(C(N)=O)cccc45)n4ncnc34)cc2)CC1 [Compound 81, 3-{8-[4-(4-Isopropylpiperazin-1-yl)phenylamino]-[1,2,4]triazolo[1,5-a]pyrazin-5-yl}benzo[b]thiophene-7-carboxylic acid amide] | > 1 | > 1 | > 1
